Test results published in patent US20030109418A1, “Methods for identifying compounds for inhibition of neoplastic lesions, and pharmaceutical compositions containing such compounds” (priority 1999, published 2003).

What was measured:
[1] = test system: Bronchial Epithelial Cells; assay: Growth inhibition, SRB assay, bronchial epithelial cells; type: cell-based
Text: (§1) A compound's ability to inhibit tumor cell growth can be measured using the HT-29 human colon carcinoma cell line obtained from ATCC. HT-29 cells have previously been characterized as a relevant colon tumor cell culture model (Fogh, J., and Trempe, G. In: Human Tumor Cells in Vitro, J. Fogh (eds.), Plenum Press, New York, pp. 115-159, 1975). HT-29 cells are maintained in RPMI media supplemented with 5% fetal bovine calf serum (Gemini Bioproducts, Inc., Carlsbad, Calif.) and 2 mm glutamine, and 1% antibiotic-antimycotic in a humidified atmosphere of 95% air and 5% CO2 at 37° C. Briefly, HT-29 cells are plated at a density of 500 cells/well in 96 well microtiter plates and incubated for 24 hours at 37° C. prior to the addition of compound. […] After six days in culture, the cells are fixed by the addition of cold trichloroacetic acid to a final concentration of 10% and protein levels are measured using the sulforhodamine B (SRB) colorimetric protein stain assay as previously described by Skehan, P., Storeng, R., Scudiero, D., Monks, A., McMahon, J., Vistica, D., Warren, J. T., Bokesch, H., Kenney, S., and Boyd, M. R., “New Colorimetric Assay For Anticancer-Drug Screening,” J. Natl. Cancer Inst. […]
(§2) To show the effectiveness of this screening method on various forms of neoplasia, compounds were tested on numerous cell lines. […] The IC50 values were determined by the SRB assay. […]

[2] = test system: HT-29 colon adenocarcinoma cells; assay: Apoptosis by DNA fragmentation assay in HT-29; type: cell-based, human; details: qualitative activity profile; note: key: −: Not active; +: Slightly active; ++: Moderately active; +++: Strongly active; ++++: Highly active
A-427, Lung = assay: Growth inhibition, SRB assay, A-427; type: cell-based
Text: as §1, §2

[3] = test system: PDE4 purified from human colon HT-29 cultured tumor cells; assay: PDE4 inhibition assay; type: biochemical; details: HT-29 cell enzyme
UACC375, Melanoma = assay: Growth inhibition, SRB assay, UACC375; type: cell-based
Text: as §1, §2

[4] = target: T1, purified cyclooxygenase (Type 1, COX-I) from ram seminal vesicles (Ovis aries, UniProt P05979); assay: COX inhibition assay, purified cyclooxygenase; type: biochemical
T1 construct: using purified cyclooxygenase from ram seminal vesicles as described previously; tissue Cayman Chemical, Ann Arbor, Mich; (named in the general protocol only); host or cells: ram seminal vesicles
T1 sequence (P05979 25-600): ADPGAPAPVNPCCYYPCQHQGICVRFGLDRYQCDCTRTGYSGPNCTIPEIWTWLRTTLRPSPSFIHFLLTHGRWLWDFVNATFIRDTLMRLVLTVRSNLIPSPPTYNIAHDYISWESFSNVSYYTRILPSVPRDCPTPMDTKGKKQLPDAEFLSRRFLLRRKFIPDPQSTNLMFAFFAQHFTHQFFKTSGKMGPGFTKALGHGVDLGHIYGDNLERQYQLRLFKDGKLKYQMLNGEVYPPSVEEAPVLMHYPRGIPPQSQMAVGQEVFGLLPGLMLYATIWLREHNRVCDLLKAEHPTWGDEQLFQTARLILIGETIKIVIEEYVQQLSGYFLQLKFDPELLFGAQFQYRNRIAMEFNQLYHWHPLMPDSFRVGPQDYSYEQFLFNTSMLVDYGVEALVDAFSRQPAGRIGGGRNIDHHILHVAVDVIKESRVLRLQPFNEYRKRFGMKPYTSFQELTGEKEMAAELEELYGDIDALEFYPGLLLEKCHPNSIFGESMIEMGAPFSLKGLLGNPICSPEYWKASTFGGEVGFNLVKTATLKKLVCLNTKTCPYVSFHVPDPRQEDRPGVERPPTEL

[5] = target: T2, PDE peak A (PDE5) from SW480 cells (Homo sapiens, UniProt O76074); assay: cGMP hydrolysis inhibition, PDE peak A from SW480; type: biochemical; details: cGMP hydrolysis, 0.25 μM 3H-cGMP
T2 construct: endogenous in cells; host or cells: SW480 colon cancer cells, DEAE-Trisacryl M fraction

[6] = test system: premalignant lesions in mouse mammary gland organ culture; assay: Mammary gland organ culture model; type: cell-based; for mammary gland organ culture: key: −: Not active; +: Slightly active; ++: Moderately active; +++: Strongly active; ++++: Highly active
Text: Test compounds identified by the above methods can be tested for antineoplastic activity by their ability to inhibit the incidence of pre-neoplastic lesions in a mammary gland organ culture system. This mouse mammary gland organ culture technique has been successfully used by other investigators to study the effects of known antineoplastic agents such as certain NSAIDs, retinoids, tamoxifen, selenium, and certain natural products, and is useful for validation of the screening method of the present invention.
For example, female BALB/c mice can be treated with a combination of estradiol and progesterone daily, in order to prime the glands to be responsive to hormones in vitro. The animals are sacrificed, and thoracic mammary glands are excised aseptically and incubated for ten days in growth media supplemented with insulin, prolactin, hydrocortisone, and aldosterone. DMBA (7,12-dimethylbenz(a)anthracene) is added to medium to induce the formation of premalignant lesions. Fully developed glands are then deprived of prolactin, hydrocortisone, and aldosterone, resulting in the regression of the glands but not the pre-malignant lesions.
The test compound is dissolved in DMSO and added to the culture media for the duration of the culture period. At the end of the culture period, the glands are fixed in 10% formalin, stained with alum carmine, and mounted on glass slides. The incidence of forming mammary lesions is the ratio of the glands with mammary lesions to […]. The incidence of mammary lesions in test compound treated glands is compared with that of the untreated glands.
The extent of the area occupied by the mammary lesions can be quantitated by projecting an image of the gland onto a digitation pad. The area covered by the gland is traced on the pad and considered as 100% of the area. The space covered by each of the non-regressed structures is also outlined on the digitization pad and quantitated by the computer.
Mammary gland organ culture experiment were performed as previously described (Mehta and Moon, Cancer Research, 46: 5832-5835, 1986). […] The data support the hypothesis that cyclooxygenase inhibition is not necessary for the anti-neoplastic properties of desired compounds.

[7] = target: T3, cGMP binding sites of the GST-cGB-PDE5 protein (Homo sapiens, UniProt O76074); assay: cGMP binding assay with GST-cGB-PDE5 fusion protein; details: 3H-cGMP 2 μM
T3 construct: made in house; host or cells: E. coli BL21 (DE3)

HCT116, Colon = assay: Growth inhibition, SRB assay, HCT116; type: cell-based
Text: as §1, §2

[8] = test system: cGMP and cAMP levels in HT-29 cells; assay: Cyclic nucleotide levels in cultured cells by radioimmunoassay; type: cell-based, human; details: HT-29 cells treated 30 minutes
[9] = test system: cGMP PDE purified from human colon HT-29 cultured tumor cells; assay: cGMP PDE inhibition assay; type: biochemical

Q: How did the IC50 [1] turn out when “5-fluoro-2-methyl-1-(p-methylsulfinylbenzylidene)-3-indenylacetic acid [Sulindac sulfide]” was run?
A: The IC50 was 30 µM.

Q: What about the Apoptosis [2] of the same substance?
A: Its Apoptosis is “+++”.

Q: What about the IC50 (A-427, Lung) of the same substance?
A: The IC50 was 90 µM.

Q: And the IC50 [3]?
A: Its IC50 is 41 µM.

Q: And the IC50 (UACC375, Melanoma)?
A: The IC50 was 50 µM.

Q: What about the “Cyclooxygenase inhibitory activity, % Inhibition at 100 μM” value ([4]; 100 μM) of the same substance?
A: The value was 97%.

Q: And the “COX Inhibition” value ([4]; qualitative activity profile)?
A: Its value is “++++”.

Q: What about the IC50 [5] of the same substance?
A: The IC50 was 50 µM.

Q: What about the “inhibition of the formation of premalignant lesions” value ([6]; mammary gland organ culture) of the same substance?
A: The value was “inactive”.

Q: What about the “Mammary Gland Organ Culture” value ([6]; qualitative activity profile) of the same substance?
A: The value was “−”.

Q: What about the “competition with cGMP in binding of GST-cGB-PDE5” value [7] of the same substance?
A: Its value is “do not bind to the cGMP binding sites of PDE5”.

Q: And the IC50 (HCT116, Colon)?
A: Its IC50 is 45 µM.

Q: What about the “effect on cAMP levels” value [8] of the same substance?
A: Its value is “unaffected”.

Q: And the “increase of cGMP levels” value [8]?
A: Its value is “greater than 50%”.

Q: What about the EC50 ([8]; read-out: EC50 for increase of cGMP) of the same substance?
A: Its EC50 is 7.3 µM.

Q: What about the “cGMP PDE inhibitory activity, % Inhibition at 10 μM” value ([9]; 10 μM) of the same substance?
A: Its value is 97%.

Q: And the “PDE Inhibition” value ([9]; qualitative activity profile)?
A: Its value is “+++”.

Q: What about the IC50 ([9]; read-out: IC50 for inhibition of cGMP PDE, HT-29 cell enzyme) of the same substance?
A: Its IC50 is 17 µM.
